Experimental data reported in patent US5767120A, “Tricyclic derivatives, compositions and methods of use” (Schering Corporation, priority 1995, dated 1998).

What was measured:
[1] = Inhibition of LPS/Galactosaimine-Induced Lethality (septic shock); format: in vivo, Mice (C57BI/6J males); conditions: 25 mg/kg orally or i.p. one hour before LPS (100 ng) and d-galactosamine (8 mg) i.p.; survival 24 hours after challenge
Experimental: This test procedure is a standard test used to determine activity against septic shock.
3. In Vivo Study: Inhibition of LPS/Galactosaimine-Induced Lethality
1) Mice (C57BI/6J males, 6-8 weeks of age) are dosed with the indicated compound (dissolved in CMC suspension vehicle; compounds are given orally or i.p. one hour before challenge with LPS and d-galactosamine).
2) Mice are challenged i.p. with a mixture of LPS (from E. coli 0111:B4; 100 ng) and d-galactosamine (8 mg).
3) Survival is determined 24 hours after challenge. See procedure published in J. Exp. Med. 165:657 (1987)

[2] = test system: TNF-α; experiment: Inhibition of LPS-Induced TNF-α Production From the Murine Cell Line WEHI-265; format: cell-based; conditions: Mus musculus, WEHI-265 cells, 20-24 hours
Experimental: This test procedure is a standard test used to determine anti-TNF-α activity and to evaluate the usefulness of said compounds for counteracting the biological effects of TNF-α.
1. In Vitro Study: Inhibition of LPS-Induced TNF-α Production From the Murine Cell Line WEHI-265
1) Cells (obtained from cell cultures containing ≤10^6 cells/ml) are suspended at 0.2×10^6 cells/ml in complete medium (RPMI1640, with 10% FCS, 10^-5 M 2-ME, 2 mM glutamine and 10 mM HEPES buffer) and plated in CoStar 24 well plates (1.0 ml/well).
2) Compounds are dissolved in the appropriate vehicle at 400 times the concentration to be tested, and 5 μl of compound is added to the wells.
3) LPS (from E. coli 0111:B4) is diluted to 6 μg/ml and 1.0 ml is added to wells.
4) Plates are incubated 20-24 hours in 37° CO02 incubator.
5) Supernatant fluids are collected and analyzed for TNF content as described in J. ImmunoL, 142:3884.

[3] = test system: serum TNF; experiment: Inhibition of LPS-Induced Serum TNF; format: in vivo, Mice (C57BI/6J males); conditions: Mus musculus, 1.5 h; 25 mg/kg orally or i.p. one hour before LPS (50 μg i.p.); serum 90 min after LPS; values may be subject to a wide margin of error
Experimental: In addition to the in vitro test described above, the following in vivo test was also performed on several of the compounds of the present invention.
2. In Vivo Study: Inhibition of LPS-Induced Serum TNF
1) Mice (C57BI/6J males, 6-8 weeks of age) are dosed with the indicated compound (dissolved in CMC suspension vehicle; compounds are given orally or i.p. one hour before LPS challenge).
3) Mice are bled 90 min after LPS challenge.
4) Sera are analyzed for TNF content by ELISA as described in J. Immunol.

Structure (SMILES) | # dead/total at 25 mg/kg [1] | inhibition at 10 µM [2] | inhibition in vivo at 25 mg/kg [3]
CCOC1(CCN(C)C)c2ccccc2CCc2ccccc21 [Compound IA, 5-ethoxy-5-dimethylaminoethyl-10,11-dihydro-5H-dibenzo[a,d]cycloheptene] | 0/8 | 51% | 69%
CCCC1(CCN(C)C)c2ccccc2CCc2ccccc21 [Compound IC, 10,11-dihydro-N,N-dimethyl-5-propyl-5H-dibenzo[a,d]cycloheptene-5-(2-ethanamine)] | 1/9 | 60% | 65%
C=CCC1(CCN(C)C(=O)OCC)c2ccccc2CCc2ccccc21 [Compound ICC] |  | 42% | 
C=CCC1(CCN(C)C)c2ccccc2CCc2ccccc21 [Compound IE, 10,11-dihydro-N,N-dimethyl-5-(2-propenyl)-5H-dibenzo[a,d]cycloheptene-5-(2-ethanamine)] | 0/9 | 67% | 48%
CCCC1(CCCN(C)C)c2ccccc2CCc2ccccc21 [Compound IG, 10,11-dihydro-N,N-dimethyl5-propyl-5H-dibenzo[a,d]cycloheptenep] |  | 60% | 
CCOC1(CCN(C)C(=O)c2ccc(C(=O)O)cc2)c2ccccc2CCc2ccccc21 [Compound IGG, 4-[[N-[2-[5-ethoxy-10,11-dihydro-5H-dibenzo[a,d]cyclohepten-5-yl]ethyl]-N-methyl]oxo]benzoic acid] | 10/10 | 4% | 0%
CCCC1(CN)c2ccccc2CCc2ccccc21 [Compound IH, 10,11-dihydro-5-propyl-5H-dibenzo[a,d]cycloheptene-5-methanamine] |  | 77% | 
CCOC1(CCN2Cc3ccccc3C2)c2ccccc2CCc2ccccc21 [Compound IL, 2-[2-[5-ethoxy-10,11-dihyd] |  | 53% | 
CCOC1(CCN2CCCC2)c2ccccc2COc2ccccc21 (centres unmarked) [Compound IM, 1-[2-(11-ethoxy-6,11-dihydrodibenz[b,e]oxepin-11-yl)ethyl]pyrrolidine] | 1/8 | 54% | 58%
CCOC1(CCN(C)S(C)(=O)=O)c2ccccc2CCc2ccccc21 [Compound IN, N-[2-(5-ethoxy-10,11-dihydro-5H-dibenzo[a,d]cycloheptenyl)ethyl]-N-methyl-methanesulfonamide] | 6/9 | 19% | 
CCCC1(CN(C)C)c2ccccc2CCc2ccccc21 [Compound ISS, 10,11-dihydro-N,N-dimethyl-5-propyl-5H-dibenzo[a,d]cyclohepten-5-methanamine] |  | 67% | 
CCOC1(CCN(C)C)c2ccccc2CCc2ccc(Cl)cc21 (centres unmarked) [Compound IS] | 3/10 |  | 
C=CCC1(CC=NO)c2ccccc2CCc2ccccc21 [Compound IUU, 2-[10,11-dihydro. 5-(2-propenyl)-5H-dibenzo[a,d]cyclohepten-5-yl]-ethanone oxime] |  | 29% | 
CCOC1(CCNC)c2ccccc2COc2ccccc21 (centres unmarked) [Compound IU] | 8/9 | 25% | 21%
C=CCC1(CCN2CCCC2C(=O)O)c2ccccc2CCc2ccccc21 (centres unmarked) [Compound IVV, 1-[2-[10,11-dihydro-5-(2propenyl)-5H-dibenzo[a,d]cyclohepten-5-yl]ethyl]-2-pyrrolidinecarboxylic acid] |  | 14% | 
CCOC(=O)N(C)CCC1(OCC)c2ccccc2CCc2ccccc21 [Compound IV] |  | 34% | 
C=CCC1(CCNC)c2ccccc2CCc2ccccc21 [IAA] | 5/10 | 56% | 38%
CCOCC1(CCNC)c2ccccc2CCc2ccccc21 [IBB] | 10/10 | 45% | 34%
CCOC1(CCN(C)C)c2ccccc2COc2ccccc21 (centres unmarked) [IB] | 0/9 | 33% | 70%
CCCC1(CCNC)c2ccccc2CCc2ccccc21 [IDD] | 9/10 | 59% | 31%
CCCC1(CCN(C)C)c2ccccc2COc2ccccc21 (centres unmarked) [ID] |  | 62% | 67%
CCOCC1(CCN(C)C)c2ccccc2CCc2ccccc21 [IEE] | 8/10 | 23% | 38%
CCOC1(CCN(C)C(=O)c2ccc(C(=O)OC)cc2)c2ccccc2CCc2ccccc21 [IFF] | 9/9 | 44% | 0%

Structure (SMILES) | # dead/total at 25 mg/kg [1] | inhibition at 10 µM [2] | inhibition in vivo at 25 mg/kg [3]
CN(C)CCC1(CC2CC2)c2ccccc2CCc2ccccc21 [IF] |  | 68% | 34%
CCOC(=O)CN(C)CCC1(OCC)c2ccccc2CCc2ccccc21 [IHH] |  | 40% | 
CCOC1(CCN(C)CCOCCO)c2ccccc2CCc2ccccc21 [IJJ] |  | 53% | 
CCOC1(CCN(C)C(C)=O)c2ccccc2CCc2ccccc21 [IJ] | 8/8 | 48% | 
CCOC1(CCN(C)CC(=O)O)c2ccccc2CCc2ccccc21 [IKK] |  | 13% | 
CCOC1(CCNC)c2ccccc2CCc2ccccc21 [IK] | 0/9 | 60% | 40%
C=CCC1(CCNC)c2ccccc2COc2ccccc21 (centres unmarked) [ILL] | 3/10 | 50% | 44%
C=CCC1(CCN(C)C)c2ccccc2COc2ccccc21 (centres unmarked) [IMM] | 0/10 | 70% | 32%
C=CCCC1(CCN(C)C)c2ccccc2CCc2ccccc21 [INN] |  | 75% | 
CN(C)CCC1(C)c2ccccc2CCc2ccccc21 [IOO] |  | 16% | 
C=CCC1(CCN2CCCC2)c2ccccc2CCc2ccccc21 [IO] | 5/9 | 66% | 47%
C=CCC1(CCN(C)C)c2ccccc2CCc2ccc(Cl)cc21 (centres unmarked) [IPP] |  | 52% | 
CCCC1(CCN2CCCC2)c2ccccc2CCc2ccccc21 [IP] | 9/9 | 44% | 52%
CCCC1(CCN(C)C)c2ccccc2CCc2ccc(Cl)cc21 (centres unmarked) [IQQ] |  | 42% | 
C=CCC1(CCN2CCN(C)CC2)c2ccccc2CCc2ccccc21 [IQ] |  | 68% | 
ON=CCC1(CC2CC2)c2ccccc2CCc2ccccc21 [IRR] |  | 48% | 38%
C=CCC1(CCN(C)C(C)=O)c2ccccc2CCc2ccccc21 [IR] |  | 61% | 36%
CCCC1(CCC=NO)c2ccccc2CCc2ccccc21 [ITT] |  | 4% | 
CCOC1(CCN(C)C(=O)c2cc[n+]([O-])cc2)c2ccccc2CCc2ccccc21 [IT] | 9/9 | 14% | 
CCOC1(CCN(C)S(=O)(=O)c2ccccc2)c2ccccc2CCc2ccccc21 [IW] | 8/10 | 47% | 
CCOCC1(CN)c2ccccc2CCc2ccccc21 [IX] | 9/10 | 29% | 3%
CCOCC1(CNC(C)=O)c2ccccc2CCc2ccccc21 [IY] |  | 17% | 
CCOCC1(CN(C)C)c2ccccc2CCc2ccccc21 [IZ] | 8/10 | 37% | 0%
